Data: patent US9662327B2 (AGIOS PHARMACEUTICALS, INC, priority 2011, dated 2017)

target: IDH1 R132H (Homo sapiens (Human), UniProt O75874, R132H); assay: Assays for IDH1 R132H Inhibitors (NADPH/aKG, resazurin detection); type: biochemical; details: IDH1 R132H enzyme, Table 2; read-out: IDHR132H Activity
In short: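 Substrate mix held 8 uM NADPH plus 2 mM aKG; buffer was 20 mM Tris pH 7.5 with 150 mM NaCl, 10 mM MgCl2, 0.03% BSA. After 50 min room-temperature reaction, NADPH remaining was detected with 30 μM resazurin mix over 5 min.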

Sequence of IDH1 R132H (O75874 whole entry R132H): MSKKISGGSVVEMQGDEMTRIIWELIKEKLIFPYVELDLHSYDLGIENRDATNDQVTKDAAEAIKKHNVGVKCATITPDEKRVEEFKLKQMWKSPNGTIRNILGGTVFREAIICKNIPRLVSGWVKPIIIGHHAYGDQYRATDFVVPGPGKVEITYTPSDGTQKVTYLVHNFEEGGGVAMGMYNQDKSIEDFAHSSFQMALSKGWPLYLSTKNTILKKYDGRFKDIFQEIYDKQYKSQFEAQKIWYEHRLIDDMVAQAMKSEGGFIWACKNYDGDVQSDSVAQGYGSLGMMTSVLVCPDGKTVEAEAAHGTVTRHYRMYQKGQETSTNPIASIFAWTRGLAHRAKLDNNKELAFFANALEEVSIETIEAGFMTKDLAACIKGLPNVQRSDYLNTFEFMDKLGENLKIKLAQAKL

| SMILES | IC50 [nM] |
| --- | --- |
| Cc1occc1C(=O)N1CCN(c2nc(C(C)C)c3c(c2C#N)CC(C)(C)OC3)C[C@H]1C [Compound 163, (R)-8-isopropyl-3,3-dimethyl-6-(3-methyl-4-(2-methylfuran-3-carbonyl)piperazin-1-yl)-3,4-dihydro-1H-pyrano[3,4-c]pyridine-5-carbonitrile] | 500 to 1000 |
| CC1CN(c2nc(-c3cccc(F)c3)c3c(c2C#N)CC(C)(C)OC3)CCN1C(=O)c1ccoc1 (centres unmarked) [Compound 130, 8-(3-fluorophenyl)-6-(4-(furan-3-carbonyl)-3-methylpiperazin-1-yl)-3,3-dimethyl-3,4-dihydro-1H-pyrano[3,4-c]pyridine-5-carbonitrile] | 1000 to 10000 |
| CC(C)c1nc(N2CCN(C(=O)c3ccc(Cl)c(Cl)c3)CC2)c(C#N)c2c1COCC2 [Compound 105, 6-(4-(3,4-dichlorobenzoyl)piperazin-1-yl)-8-isopropyl-3,4-dihydro-1H-pyrano[3,4-c]pyridine-5-carbonitrile] | 1000 to 10000 |
| CC(C)[C@@H]1CN(c2nc(C3CC3)c3c(c2C#N)CC(C)(C)OC3)CCN1C(=O)CCl [Compound 317, (R)-6-(4-(2-chloroacetyl)-3-isopropylpiperazin-1-yl)-8-cyclopropyl-3,3-dimethyl-3,4-dihydro-1H-pyrano[3,4-c]pyridine-5-carbonitrile] | < 500 |
| CC(C)[C@@H]1CN(c2nc(C3CC3)c3c(c2C#N)CC(C)(C)OC3)CCN1C(=O)COc1cccnc1 [Compound 399, (R)-8-cyclopropyl-6-(3-isopropyl-4-(2-(pyridin-3-yloxy)acetyl)piperazin-1-yl)-3,3-dimethyl-3,4-dihydro-1H-pyrano[3,4-c]pyridine-5-carbonitrile] | 1000 to 10000 |
| Cc1ccccc1NC(=O)N1CCN(c2nc(C3CCCCC3)c3c(c2C#N)CCOC3)C[C@H]1C [Compound 279, (R)-4-(5-cyano-8-cyclohexyl-3,4-dihydro-1H-pyrano[3,4-c]pyridin-6-yl)-2-methyl-N-o-tolylpiperazine-1-carboxamide] | 1000 to 10000 |
| CC1(C)Cc2c(C#N)c(N3CCN(C(=O)c4ccoc4)C(c4ccccc4)C3)nc(C3CC3)c2CO1 (centres unmarked) [Compound 156] | 1000 to 10000 |
| CC(C)c1nc(N2CCN(C(=O)c3ccoc3)[C@@H](c3ccccc3)C2)c(C#N)c2c1COC(C)(C)C2 [Compound 257, (S)-6-(4-(furan-3-carbonyl)-3-phenylpiperazin-1-yl)-8-isopropyl-3,3-dimethyl-3,4-dihydro-1H-pyrano[3,4-c]pyridine-5-carbonitrile] | 1000 to 10000 |
| C[C@@H]1CN(c2nc(C3CCCCC3)c3c(c2C#N)CC(C)(C)OC3)CCN1C(=O)Cc1cccs1 [Compound 153, (R)-8-cyclohexyl-3,3-dimethyl-6-(3-methyl-4-(2-(thiophen-2-yl)acetyl)piperazin-1-yl)-3,4-dihydro-1H-pyrano[3,4-c]pyridine-5-carbonitrile] | 1000 to 10000 |
| CC1CN(c2nc(C3CCCCC3)c3c(c2C#N)CCOC3)CCN1C(=O)c1ccco1 (centres unmarked) [Compound 132, 8-cyclohexyl-6-(4-(furan-2-carbonyl)-3-methylpiperazin-1-yl)-3,4-dihydro-1H-pyrano[3,4-c]pyridine-5-carbonitrile] | 1000 to 10000 |
| COc1cccc(CC(=O)N2CCN(c3nc(C(C)C)c4c(c3C#N)CC(C)(C)OC4)C[C@H]2C(C)C)c1 [Compound 233, (R)-8-isopropyl-6-(3-isopropyl-4-(2-(3-methoxyphenyl)acetyl)piperazin-1-yl)-3,3-dimethyl-3,4-dihydro-1H-pyrano[3,4-c]pyridine-5-carbonitrile] | 1000 to 10000 |
| CCOC(=O)C1CN(c2nc(C(C)C)c3c(c2C#N)CC(C)(C)OC3)CCN1C(=O)c1ccco1 (centres unmarked) [Compound 298, ethyl 4-(5-cyano-8-isopropyl-3,3-dimethyl-3,4-dihydro-1H-pyrano[3,4-c]pyridin-6-yl)-1-(furan-2-carbonyl)piperazine-2-carboxylate] | 1000 to 10000 |
| N#Cc1c(N2CCN(C(=O)c3ccc4[nH]ccc4c3)CC2)nc(C2CCCCC2)c2c1CCOC2 [Compound 122, 6-(4-(1H-indole-5-carbonyl)piperazin-1-yl)-8-cyclohexyl-3,4-dihydro-1H-pyrano[3,4-c]pyridine-5-carbonitrile] | 1000 to 10000 |
| CC1CN(c2nc(C3CC3)c3c(c2C#N)CC(C)(C)OC3)CCN1C(=O)c1ccoc1 (centres unmarked) [Compound 136] | 1000 to 10000 |
| CC(C)c1nc(N2CCN(C(=O)c3cscn3)[C@H](C)C2)c(C#N)c2c1COC(C)(C)C2 [Compound 252, (R)-8-isopropyl-3,3-dimethyl-6-(3-methyl-4-(thiazole-4-carbonyl)piperazin-1-yl)-3,4-dihydro-1H-pyrano[3,4-c]pyridine-5-carbonitrile] | 1000 to 10000 |
| CC(C)[C@@H]1CN(c2nc(C3CC3)c3c(c2C#N)CC(C)(C)OC3)CCN1C(=O)OC(C)(C)C [Compound 306, (R)-tert-butyl 4-(5-cyano-8-cyclopropyl-3,3-dimethyl-3,4-dihydro-1H-pyrano[3,4-c]pyridin-6-yl)-2-isopropylpiperazine-1-carboxylate] | 1000 to 10000 |
| CC(C)c1nc(N2CCN(C(=O)Cc3ccccc3F)[C@H](C(C)C)C2)c(C#N)c2c1COC(C)(C)C2 [Compound 215, (R)-6-(4-(2-(2-fluorophenyl)acetyl)-3-isopropylpiperazin-1-yl)-8-isopropyl-3,3-dimethyl-3,4-dihydro-1H-pyrano[3,4-c]pyridine-5-carbonitrile] | 1000 to 10000 |
| COC(=O)CN1CCN(c2nc(C3CC3)c3c(c2C#N)CC(C)(C)OC3)C[C@H]1C(C)C [Compound 397, (R)-methyl 2-(4-(5-cyano-8-cyclopropyl-3,3-dimethyl-3,4-dihydro-1H-pyrano[3,4-c]pyridin-6-yl)-2-isopropylpiperazin-1-yl)acetate] | 1000 to 10000 |
| CCCOC(=O)N1CCN(c2nc(C3CCCCC3)c3c(c2C#N)CCOC3)C[C@H]1C [Compound 359, (R)-propyl 4-(5-cyano-8-cyclohexyl-3,4-dihydro-1H-pyrano[3,4-c]pyridin-6-yl)-2-methylpiperazine-1-carboxylate] | 1000 to 10000 |
| Cc1occc1C(=O)N1CCN(c2nc(C3CC3)c3c(c2C#N)CC(C)(C)OC3)C[C@H]1C(C)C [Compound 181] | < 500 |
| COC(=O)CCC(=O)N1CCN(c2nc(C3CC3)c3c(c2C#N)CC(C)(C)OC3)C[C@H]1C(C)C [Compound 412, (R)-methyl 4-(4-(5-cyano-8-cyclopropyl-3,3-dimethyl-3,4-dihydro-1H-pyrano[3,4-c]pyridin-6-yl)-2-isopropylpiperazin-1-yl)-4-oxobutanoate] | < 500 |

same assay, conditions: IDH1 R132H enzyme, Table 3; read-out: R132H IC50

| SMILES | IC50 [nM] |
| --- | --- |
| CC(C)[C@@H]1CN(c2nc(C3CC3)c3c(c2C#N)CC(C)(C)OC3)CCN1C(=O)CS(C)(=O)=O [Compound 446, (R)-8-cyclopropyl-6-(3-isopropyl-4-(2-(methylsulfonyl)acetyl)piperazin-1-yl)-3,3-dimethyl-3,4-dihydro-1H-pyrano[3,4-c]pyridine-5-carbonitrile] | 500 to 1000 |
| CCOCCC(=O)N1CCN(c2nc(C3CC3)c3c(c2C#N)CC(C)(C)OC3)C[C@H]1C(C)C [Compound 459, (R)-8-cyclopropyl-6-(4-(3-ethoxypropanoyl)-3-isopropylpiperazin-1-yl)-3,3-dimethyl-3,4-dihydro-1H-pyrano[3,4-c]pyridine-5-carbonitrile] | < 500 |
